Experimental data reported in ChEMBL document CHEMBL5154815, “A Series of Substituted Bis-Aminotriazines Are Activators of the Natriuretic Peptide Receptor C” (J Med Chem, 2022).

Tests used:
[1] = target: T1, Atrial natriuretic peptide receptor 3 (Rattus norvegicus, UniProt P41740); assay: Agonist activity at NPRC in rat small mesenteric arteries assessed as vasorelaxation preincubated with M372049 for 15 mins followed by compound treatment by Organ bath assay; assay type: tissue-based, Artery
T1 sequence (P41740 whole entry): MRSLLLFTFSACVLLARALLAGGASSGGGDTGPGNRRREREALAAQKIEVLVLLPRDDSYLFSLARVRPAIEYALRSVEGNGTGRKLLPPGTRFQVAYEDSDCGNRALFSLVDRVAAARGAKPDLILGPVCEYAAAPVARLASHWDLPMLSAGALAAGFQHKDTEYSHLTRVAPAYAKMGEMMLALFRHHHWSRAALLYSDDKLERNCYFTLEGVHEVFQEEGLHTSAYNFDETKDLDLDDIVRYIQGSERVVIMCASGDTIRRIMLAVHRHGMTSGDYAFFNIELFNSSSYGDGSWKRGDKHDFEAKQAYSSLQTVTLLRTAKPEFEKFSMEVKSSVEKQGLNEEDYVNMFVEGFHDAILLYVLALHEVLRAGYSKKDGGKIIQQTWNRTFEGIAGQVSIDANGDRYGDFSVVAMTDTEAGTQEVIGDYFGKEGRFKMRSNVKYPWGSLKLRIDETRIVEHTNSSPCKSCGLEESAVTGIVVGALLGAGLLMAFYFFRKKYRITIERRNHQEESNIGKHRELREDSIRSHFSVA

[2] = Stability in Sprague-Dawley rat hepatocytes assessed as clearance per […] at 1 uM after 20 mins by LC-MS/MS analysis; assay type: ADME, cell-based, Hepatocyte
[3] = Solubility of compound in PBS at 10 mM after 3 hrs by UV analysis; conditions: buffer, 10000 µM
[4] = target: T1, Atrial natriuretic peptide receptor 3; assay: Agonist activity at NPRC in rat small mesenteric arteries assessed as vasorelaxation by Organ bath assay; assay type: tissue-based, Artery
[5] = target: T1, Atrial natriuretic peptide receptor 3; assay: Agonist activity at NPRC in rat aorta assessed as vasorelaxation by Organ bath assay; assay type: tissue-based
[6] = target: T2, Atrial natriuretic peptide receptor 3 (Mus musculus, UniProt P70180); assay: Agonist activity at NPRC in wild type mouse mesenteric arteries assessed as vasorelaxation by Organ bath assay; assay type: tissue-based, Artery
T2 sequence (P70180 whole entry): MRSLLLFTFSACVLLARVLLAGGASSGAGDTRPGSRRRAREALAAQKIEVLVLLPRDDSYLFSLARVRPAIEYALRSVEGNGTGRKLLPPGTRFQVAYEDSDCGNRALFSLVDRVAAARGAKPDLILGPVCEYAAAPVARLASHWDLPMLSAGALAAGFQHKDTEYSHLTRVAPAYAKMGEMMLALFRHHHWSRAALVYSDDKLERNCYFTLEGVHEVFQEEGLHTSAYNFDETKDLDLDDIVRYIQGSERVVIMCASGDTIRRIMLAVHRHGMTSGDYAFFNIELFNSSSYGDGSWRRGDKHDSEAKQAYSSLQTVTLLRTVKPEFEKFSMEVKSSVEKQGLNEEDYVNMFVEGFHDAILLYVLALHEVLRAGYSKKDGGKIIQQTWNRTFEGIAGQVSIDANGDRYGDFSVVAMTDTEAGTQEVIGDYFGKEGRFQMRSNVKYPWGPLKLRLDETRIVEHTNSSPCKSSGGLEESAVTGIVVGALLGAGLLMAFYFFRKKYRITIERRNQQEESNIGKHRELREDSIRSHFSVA

[7] = target: T2, Atrial natriuretic peptide receptor 3; assay: Agonist activity at NPRC in knock out mouse mesenteric arteries assessed as vasorelaxation by Organ bath assay; assay type: tissue-based, Artery
[8] = target: Cytochrome P450 2C9 (Homo sapiens, UniProt P11712); assay: Inhibition of CYP2C9 in human liver microsomes using diclofenac as substrate preincubated for 10 mins followed by NADPH addition and measured after 10 mins by LC/MS/MS analysis
[9] = Stability of compound in pooled human plasma assessed as half life measured upto 120 mins by LC/MS/MS analysis; conditions: 2 h
[10] = Protein binding in human plasma by equilibrium dialysis assay
[11] = target: Cytochrome P450 2C19 (Homo sapiens, UniProt P33261); assay: Inhibition of CYP2C19 in human liver microsomes using S-mephenytoin as substrate preincubated for 10 mins followed by NADPH addition and measured after 20 mins by LC/MS/MS analysis
[12] = target: T3, Atrial natriuretic peptide receptor 3 (Homo sapiens, UniProt P17342); assay: Binding affinity to CM5 sensor chip immobilized human NPR-C (27 to 541 residues) assessed as dissociation constant by surface plasmon resonance analysis
T3 sequence (P17342 whole entry): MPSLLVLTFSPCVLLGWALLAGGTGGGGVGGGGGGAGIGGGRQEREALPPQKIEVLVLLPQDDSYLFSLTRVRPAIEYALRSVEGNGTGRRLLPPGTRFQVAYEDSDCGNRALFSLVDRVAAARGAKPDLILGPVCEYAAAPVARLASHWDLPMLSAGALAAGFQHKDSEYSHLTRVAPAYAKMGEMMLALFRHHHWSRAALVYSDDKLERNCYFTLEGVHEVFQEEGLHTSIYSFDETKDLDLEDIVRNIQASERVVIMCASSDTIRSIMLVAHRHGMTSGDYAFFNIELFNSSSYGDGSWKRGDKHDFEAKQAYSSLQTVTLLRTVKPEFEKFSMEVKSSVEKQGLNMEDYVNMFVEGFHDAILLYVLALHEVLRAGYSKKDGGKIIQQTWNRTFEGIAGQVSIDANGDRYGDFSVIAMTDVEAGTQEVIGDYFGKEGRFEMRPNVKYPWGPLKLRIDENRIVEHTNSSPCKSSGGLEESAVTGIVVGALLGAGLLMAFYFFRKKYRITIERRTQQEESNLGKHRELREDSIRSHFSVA

[13] = target: T4, Atrial natriuretic peptide receptor 3 (Homo sapiens) (UniProt P17342); assay: Agonist activity at NPRC in human Hela cells assessed as decrease in forskolin-induced cAMP level at 100 uM relative to control; assay type: cell-based; set-up: scale not given: the % may be the effect or the level left
T4 sequence (whole entry): T3 sequence (P17342 whole entry)

[14] = rat, hepatocytes, 20 min, 1 µM
[15] = Permeability of the compound in PBS at pH 7.4 incubated for 5 hrs by LC/MS based PAMPA assay; conditions: pH 7.4, 5 h
[16] = target: T5, Cytochrome P450 1A2 (Homo sapiens, UniProt P05177); assay: Inhibition of CYP1A2 in human liver microsomes using phenacetin as substrate preincubated for 10 mins followed by NADPH addition and measured after 10 mins by LC/MS/MS analysis
T5 sequence (P05177 whole entry): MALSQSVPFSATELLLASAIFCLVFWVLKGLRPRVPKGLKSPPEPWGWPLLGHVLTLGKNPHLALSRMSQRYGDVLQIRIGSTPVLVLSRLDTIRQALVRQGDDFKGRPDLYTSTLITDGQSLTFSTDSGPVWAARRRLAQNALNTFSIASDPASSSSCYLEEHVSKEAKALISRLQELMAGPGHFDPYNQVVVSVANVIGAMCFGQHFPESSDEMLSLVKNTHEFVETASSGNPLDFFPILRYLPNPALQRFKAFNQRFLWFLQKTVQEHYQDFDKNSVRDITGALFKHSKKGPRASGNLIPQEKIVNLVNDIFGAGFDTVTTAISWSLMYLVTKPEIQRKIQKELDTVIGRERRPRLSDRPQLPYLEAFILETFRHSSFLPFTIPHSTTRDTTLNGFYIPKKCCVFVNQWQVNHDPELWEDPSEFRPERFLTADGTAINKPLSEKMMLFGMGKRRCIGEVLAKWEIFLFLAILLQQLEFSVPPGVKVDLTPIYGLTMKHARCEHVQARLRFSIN

[17] = target: T6, Cytochrome P450 2C8 (Homo sapiens, UniProt P10632); assay: Inhibition of CYP2C8 in human liver microsomes using amodiaquine as a substrate preincubated for 10 mins followed by NADPH addition and measured after 10 mins by LC/MS/MS analysis
T6 sequence (P10632 whole entry): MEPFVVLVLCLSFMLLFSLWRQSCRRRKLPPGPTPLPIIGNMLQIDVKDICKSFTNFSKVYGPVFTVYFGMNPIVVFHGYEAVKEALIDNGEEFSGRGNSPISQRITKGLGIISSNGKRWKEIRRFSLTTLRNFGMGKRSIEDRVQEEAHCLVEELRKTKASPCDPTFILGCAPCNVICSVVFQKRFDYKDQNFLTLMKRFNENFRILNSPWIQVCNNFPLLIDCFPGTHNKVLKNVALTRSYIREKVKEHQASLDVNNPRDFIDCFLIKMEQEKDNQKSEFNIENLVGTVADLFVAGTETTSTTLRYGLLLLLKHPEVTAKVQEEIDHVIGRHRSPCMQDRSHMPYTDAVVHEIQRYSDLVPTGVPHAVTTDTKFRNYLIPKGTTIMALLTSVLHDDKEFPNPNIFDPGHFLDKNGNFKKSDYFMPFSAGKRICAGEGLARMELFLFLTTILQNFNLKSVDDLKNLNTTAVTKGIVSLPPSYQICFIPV

[18] = target: T7, Cytochrome P450 3A4 (Homo sapiens, UniProt P08684); assay: Inhibition of CYP3A4 in human liver microsomes using midazolam as a substrate preincubated for 10 mins followed by NADPH addition and measured after 20 mins by LC/MS/MS analysis
[19] = target: T7, Cytochrome P450 3A4; assay: Inhibition of CYP3A4 in human liver microsomes using testosterone as a substrate preincubated for 10 mins followed by NADPH addition and measured after 10 mins by LC/MS/MS analysis

Sequence of Cytochrome P450 2C9 (P11712 whole entry): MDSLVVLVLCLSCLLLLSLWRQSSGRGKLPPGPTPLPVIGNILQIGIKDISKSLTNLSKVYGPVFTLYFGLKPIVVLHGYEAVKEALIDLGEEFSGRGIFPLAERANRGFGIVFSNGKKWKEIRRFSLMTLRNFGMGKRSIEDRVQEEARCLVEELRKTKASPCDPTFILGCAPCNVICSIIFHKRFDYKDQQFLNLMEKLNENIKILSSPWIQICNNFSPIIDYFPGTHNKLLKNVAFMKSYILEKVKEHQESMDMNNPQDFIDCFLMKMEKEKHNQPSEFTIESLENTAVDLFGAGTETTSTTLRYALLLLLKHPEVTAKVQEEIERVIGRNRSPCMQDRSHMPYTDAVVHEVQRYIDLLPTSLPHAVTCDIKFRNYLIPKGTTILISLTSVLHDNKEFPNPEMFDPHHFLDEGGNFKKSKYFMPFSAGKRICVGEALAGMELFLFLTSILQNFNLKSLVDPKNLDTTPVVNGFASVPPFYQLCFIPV
Sequence of Cytochrome P450 2C19 (P33261 whole entry, the tested form may be a part): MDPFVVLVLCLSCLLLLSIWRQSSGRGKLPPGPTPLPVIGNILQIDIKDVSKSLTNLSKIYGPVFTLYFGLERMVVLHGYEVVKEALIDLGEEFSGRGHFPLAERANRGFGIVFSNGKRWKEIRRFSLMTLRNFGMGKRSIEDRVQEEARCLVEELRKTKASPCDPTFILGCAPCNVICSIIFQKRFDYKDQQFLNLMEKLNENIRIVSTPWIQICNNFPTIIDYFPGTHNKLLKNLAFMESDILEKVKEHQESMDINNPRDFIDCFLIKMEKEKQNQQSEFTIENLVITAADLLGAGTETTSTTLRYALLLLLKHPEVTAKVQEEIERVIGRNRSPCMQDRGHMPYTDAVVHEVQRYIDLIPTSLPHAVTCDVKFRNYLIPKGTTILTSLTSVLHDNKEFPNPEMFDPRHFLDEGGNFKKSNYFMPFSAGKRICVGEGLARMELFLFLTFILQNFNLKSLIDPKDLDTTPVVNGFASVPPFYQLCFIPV
T7 sequence (P08684 whole entry): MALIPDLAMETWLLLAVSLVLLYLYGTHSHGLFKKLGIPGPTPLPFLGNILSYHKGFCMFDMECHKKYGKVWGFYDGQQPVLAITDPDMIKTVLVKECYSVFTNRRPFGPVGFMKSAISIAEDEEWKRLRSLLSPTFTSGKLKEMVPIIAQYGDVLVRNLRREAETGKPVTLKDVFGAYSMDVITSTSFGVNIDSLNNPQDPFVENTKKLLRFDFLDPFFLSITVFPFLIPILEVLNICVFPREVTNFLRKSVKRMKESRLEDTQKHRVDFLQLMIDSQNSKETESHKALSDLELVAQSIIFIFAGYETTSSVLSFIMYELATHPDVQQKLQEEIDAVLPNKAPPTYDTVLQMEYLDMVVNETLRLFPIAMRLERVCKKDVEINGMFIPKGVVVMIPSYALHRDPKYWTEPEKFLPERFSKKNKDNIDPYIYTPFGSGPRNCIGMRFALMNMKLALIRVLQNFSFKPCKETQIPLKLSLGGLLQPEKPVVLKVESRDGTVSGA

SMILES	EC50 [1] [µM]	CLH [2] [µL/min]	solubility [3] [mg/mL]	EC50 [4] [µM]	EC50 [5] [µM]	EC50 [6] [µM]	EC50 [7] [µM]	IC50 [8] [µM]	t1/2 [9] [h]	PPB [10] [%]	IC50 [11] [µM]	Kd [12] [µM]	Activity [13] [%]	t1/2 [14] [h]	Papp [15]	IC50 [16] [µM]	IC50 [17] [µM]	IC50 [18] [µM]	IC50 [19] [µM]
COC(=O)[C@H](CC(C)C)Nc1nc(Cl)nc(N[C@H]2CC[C@H](Nc3nc(Cl)nc(N[C@@H](CC(C)C)C(=O)OC)n3)CC2)n1	0.47	< 0.64	> 122.52	0.97	1.43	1.16	2.64	4.96	> 1	99.5	37.8	95.7	31.4	> 3.613					
CC(=O)Nc1ccc(Nc2ncnc(N[C@@H](CC(C)C)C(=O)O)n2)cc1		< 6.4	> 71.68	22.2	6.2			> 50	> 1	85.4	> 50	220		3.613	< 0.001 10^-6 cm/s	> 50	> 50	> 50	> 50
